The text below walks through data of patent US20190046513A1, “COMBINATION THERAPIES OF HDAC INHIBITORS AND TUBULIN INHIBITORS” (HUYA Bioscience International, LLC, priority 2017, published 2019).

Structures can show the parent of a compound that is named as a salt.

What all share (type): in vivo, BALB/c mice
Test [1] relates to 4T1 murine mammary carcinoma cells. Nature of the test: Tumor growth delay, subcutaneous 4T1 tumors (Example 1, Study Group A). To be noted: for Median TTE: endpoint tumor volume 1000 mm^3, n=10; for % TGD: vs vehicle group. The method, then:
(§1) In the present example, HBI-8000 was tested as monotherapy at 50 mg/kg, and in combination with eribulin mesylate at 0.3 mg/kg and 1.0 mg/kg. The experiment included a vehicle-treated group, and eribulin at 0.3 mg/kg and 1.0 mg/kg, which served as the control groups for analysis of efficacy.
Two study groups were used; in the first group (Study Group A) tumor growth inhibition and survival were measured. Tumors were measured twice per week until the study was ended on Day 21. Each animal was euthanized when its tumor attained the endpoint tumor volume of 1000 mm^3 or on the final day of the study, whichever came first, and the time to endpoint (TTE) for each mouse was calculated. Treatment response was determined from an analysis of percent tumor growth delay (% TGD), defined as the percent increase in the median time to endpoint (TTE) for treated versus control mice; and by log-rank significance of differences in survival among groups and regression responses.
Mice: Female BALB/c mice (Charles River Laboratories) were seven weeks old, with a body weight (BW) range of 15.6 to 20.2 grams on Day 1 of the study. The animals were fed ad libitum water (reverse osmosis, 1 ppm Cl), and NIH 31 Modified and Irradiated Lab Diet® consisting of 18.0% crude protein, 5.0% crude fat, and 5.0% crude fiber. The mice were housed on irradiated Enrich-O'Cobs™ Laboratory Animal Bedding in static microisolators on a 12-hour light cycle at 20-22° C. (68-72° F.) and 40-60% humidity.
Tumor Cells: 4T1 murine mammary carcinoma cells were maintained in Dulbecco's Modified Eagle Medium (DMEM) supplemented with 10% fetal bovine serum and 2 mM glutamine, 100 units/mL penicillin G sodium, 100 μg/mL streptomycin sulfate, and 25 μg/mL gentamicin. Cell cultures were maintained in tissue culture flasks in a humidified incubator at 37° C., in an atmosphere of 5% CO2 and 95% air.
Tumor Implantation: Cells were harvested during exponential growth, and resuspended in cold DMEM. Each mouse was inoculated subcutaneously in the right flank with 1×10^6 4T1 cells (0.1 mL of cell suspension). Tumors were calipered in two dimensions to monitor growth as their mean volume approached the desired 100-150 mm^3 range. Tumor burden was calculated using the formula:
where w=width and 1=length, in mm, of the tumor. Tumor weight may be estimated with the assumption that 1 mg is equivalent to 1 mm^3 of tumor volume. Nine days after tumor implantation, which was designated as Day 1 of the study, animals with individual tumor volumes from 108 to 126 mm^3 were sorted into treatment groups. For Study Group A the animals were sorted into 6 treatment groups (Table 1; n=10/group) with group mean tumor volume of 117 mm^3. For Study Group B the animals were also sorted into 6 treatment groups (Table 1; n=5/group) with group mean tumor volume of 117 mm^3.
Tumor Growth Delay: Tumors were measured using calipers twice per week, and each animal was euthanized when its tumor reached a volume of 1000 mm^3 or at the end of the study (D47), whichever came first. Animals that exited the study for tumor volume endpoint were documented as euthanized for tumor progression (TP), with the date of euthanasia. The time to endpoint (TTE) for analysis was calculated for each mouse by the following equation: […]
where TTE is expressed in days, endpoint volume is expressed in mm^3, b is the intercept, and m is the slope of the line obtained by linear regression of a log-transformed tumor growth data set. The data set consisted of the first observation that exceeded the endpoint volume used in analysis and the three consecutive observations that immediately preceded the attainment of this endpoint volume. The calculated TTE is usually less than the TP date, the day on which the animal was euthanized for tumor burden. […]

The test system is the same in test [2]. The test can be described thus: Lung metastasis count, 4T1 tumor-bearing mice (Example 1, Study Group B). The settings on record: Example 1, monotherapies; Day 14. The method, then: as §1
In the second group (Study Group B, tumor-bearing mice were monitored for the development of lung metastases until the number of metastatic nodules reached 30-50 per animal. All animals were euthanized on Day 14, the lungs removed and processed for analysis of metastatic burden.
where w=width and 1=length, in mm, of the tumor. Tumor weight may be estimated with the assumption that 1 mg is equivalent to 1 mm^3 of tumor volume. […]
Lung Metastasis: Animals were sacrificed at endpoint using isoflurane anesthesia and necropsies were performed to identify metastases. […] Percent inhibition was defined as the difference between the number of metastatic foci of the designated control group and the number of metastatic foci of the drug-treated group, expressed as a percentage of the number of metastatic foci of the designated control group: […]
Statistics: Prism (GraphPad) for Windows 6.07 was used for graphical presentations and statistical analyses. […] Logrank analysis includes the data for all animals in a group except those assessed as NTR deaths. […]

Test [3] has the same test system. Nature of the test: Lung metastasis count, 4T1 tumor-bearing mice (Example 2). To be noted: HBI-8000 50 mg/kg p.o. qd×16, eribulin 1 mg/kg i.v., Day 18, FIG. 3. How it is done: (§2) In the present example, HBI-8000 was tested as monotherapy at 50 mg/kg, and in combination with eribulin mesylate at 1.0 mg/kg. The experiment included a vehicle-treated group, and eribulin at 1.0 mg/kg, which served as the control groups for analysis of efficacy.
Two study groups were used; in the first group, a sentinel group (termed LOOK-SEE) tumor-bearing mice were monitored for the development of lung metastases until the number of metastatic nodules reached 30-50 per animal. After meeting that criteria, all animals in Group B, the main study group, were euthanized on Day 18, the lungs removed and processed for analysis of metastatic burden.
(§3) Tumor Implantation: Cells were harvested during exponential growth, and resuspended in cold DMEM. Each mouse was inoculated subcutaneously in the right flank with 0.5×10^6 4T1 cells (0.1 mL of cell suspension). Tumors were calipered in two dimensions to monitor growth as their mean volume approached the desired 100-150 mm^3 range. Tumor burden was calculated using the formula:
where w=width and 1=length, in mm, of the tumor. Tumor weight may be estimated with the assumption that 1 mg is equivalent to 1 mm3 of tumor volume. […]

The test system is the same in test [4]. The test can be described thus: Primary tumor volume distribution, 4T1 tumor-bearing mice (Example 2). The settings on record: HBI-8000 50 mg/kg p.o. qd×16, eribulin 1 mg/kg i.v., FIG. 4. How it is done:
as §2, §3
where w=width and 1=length, in mm, of the tumor. Tumor weight may be estimated with the assumption that 1 mg is equivalent to 1 mm3 of tumor volume. Fourteen days after tumor implantation, which was designated as Day 1 of the study, animals with individual tumor volumes from animals with individual tumor volumes ranging from 75 to 108 mm3 were sorted into the “LOOK-SEE” group (n=15) and eight efficacy groups (n=10) with group mean tumor volumes of 95 mm3.
Treatment: On Day 1 of the study, mice bearing established 4T1 tumors began dosing according to the treatment plan described below. All agents were administered in dosing volumes of 10 mL/kg; volumes were adjusted according to BW of the individual animal. […]

The mark [5] stands for this setting: Eribulin mesylate 0.3 mg/kg i.v., qowk × 2.
The mark [6] stands for this setting: Eribulin mesylate 1.0 mg/kg i.v., qowk × 2.
Setting [7] is: HBI-8000 50 mg/kg p.o., qd × 21.

As for `C=C1C[C@@H]2CC[C@@]34C[C@H]5O[C@H]6[C@@H](O3)[C@H]3OC(CC[C@@H]3O[C@H]6C5O4)CC(=O)C[C@@H]3[C@@H](OC)[C@@H](C[C@H](O)CN)O[C@H]3CC3O[C@@H](CCC1O2)C[C@@H](C)C3=C` [Eribulin mesylate, 11,15:18,21:24,28 Triepoxy-7,9-ethano-12,15-methano-9H, 15H-furo[3,2-i]furo[2′,3′: 5,6]pyrano[4,3b][1,4]dioxacyclopentacosin-5(4H)-one,2-[(2S)-3-amino-2-hydroxypropyl]hexacosahydro-3 methoxy-26-methyl-20,27-bis(methylene)-, (2R,3R,3aS,7R,8aS,9S,10aR,11S,12R,13aR,13bS,15S,18S,21 S,24S,26R,28R,29aS)-, methanesulfonate (salt)], in test [1] (setting [5]), the “Median TTE” value stood at 17.8 days and the “% TGD” value turned out to be 6%. Moreover, in test [1] (setting [6]), the “Median TTE” value came out at 17.6 days and the “% TGD” value stood at 5%. Also, in test [2], the “number of lung metastatic foci” value is given as “did not significantly inhibit the number of lung metastatic foci”. Besides, the metastatic lung foci result in test [3] was “did not produce a statistically significant decrease in metastatic lung foci”. The “primary tumor volume distribution” value in test [4] is reported as “did not produce a statistically significant decrease in primary tumor volume distribution”.

Turning to `Nc1cc(F)ccc1NC(=O)c1ccc(CNC(=O)/C=C/c2cccnc2)cc1` [HBI-8000, N-(2-amino-4-fluorophenyl)-4-[[[(2E)-1-oxo-3-(3-pyridinyl)-2-propen-1-yl]amino]methyl]benzamide], the tumor volume distribution entry in test [1] (Example 1, HBI-8000 monotherapy 50 mg/kg, P<0.01) is on record as “significant ((P<0.01) reduction in the tumor volume distribution”. Moreover, in test [1] (setting [7]), the “Median TTE” value is 18.8 days and the “% TGD” value was determined as 12%. Also, the “number of lung metastatic foci” value in test [2] is “did not significantly inhibit the number of lung metastatic foci”. Further, the metastatic lung foci entry in test [3] is listed as “statistically significant (P<0.05) decrease in metastatic lung foci”. Also, the “primary tumor volume distribution” value in test [4] is “statistically significant (P<0.001) decrease in primary tumor volume distribution compared to vehicle controls”.
